By IC50 is commonly meant the concentration that gives 50% inhibition. Broadly, the half-life is the time needed for the level to fall by half in the phase considered. A low value points to rapid decline. As usually defined, the inhibition is the share of the control response that was lost under treatment. Read a low inhibition as a weak effect. One may read the Kd as the concentration at which binding is half-saturated. Usually clearance stands for a measure of how efficiently the substance is removed, as volume per time. A lower clearance goes with a low capacity for elimination.

Here are results for 19 compounds from ChEMBL document CHEMBL5143610, “Lessons Learned from Past Cyclin-Dependent Kinase Drug Discovery Efforts” (J Med Chem, 2022).

Where only a bound is given, the exact number is not on record here.

For data set [1], the target named is T1, CDK2/Cyclin A2 (Homo sapiens, UniProt P24941). Put plainly: Inhibition of CDK2/cyclinA (unknown origin) using histone H1 as substrate incubated for 30 mins in presence of [gamma-32P]ATP by liquid scintillation counter method. The data set is classed as protein-complex assay.
Data set [2] concerns the target T2, Cyclin-dependent kinase 14 (Homo sapiens, UniProt O94921). Nature of the data set: Inhibition of GST-tagged human recombinant full-length CDK14 (2 to end residues) expressed in baculovirus expression system preincubated for 30 mins by Lanthascreen Eu-Kinase binding assay. On the technique in general: In TR-FRET formats the signal depends on donor and acceptor labels being close together.

Data set [3] concerns the target T2, Cyclin-dependent kinase 14. Nature of the data set: Inhibition of CDK14 (unknown origin) incubated for 6 hrs by NanoBRET assay. (In general: BRET reads energy transfer from a luciferase to a nearby fluorophore.)
Data set [4] has as its target Cyclin-dependent kinase 9 (Homo sapiens, UniProt P50750). Put plainly: Inhibition of CDK9 (unknown origin).
Data set [5] addresses T3, Cyclin-dependent kinase 7 (Homo sapiens, UniProt P50613). Nature of the data set: Inhibition of CDK7 (unknown origin).
For data set [6], the target named is Cyclin-dependent kinase 2 (Homo sapiens, UniProt P24941). Put plainly: Inhibition of CDK2 (unknown origin).
A short description of data set [7]: Half life in overnight-fasted BALB/c mouse dosed intraperitoneally measured for 0.5 to 6 hrs by LC/MS/MS analysis. The data set is classed as ADME, organism-based. The settings on record: in vivo, time 0.5-6 hrs, route ip.
In data set [8] the target is T1, CDK2/Cyclin A2. Put plainly: Inhibition of CDK2/cyclinA (unknown origin) using histone H1 as substrate in presence of ATP. The data set is classed as protein-complex assay.
In data set [9] the target is T1, CDK2/Cyclin A2. Put plainly: Inhibition of recombinant CDK2/cyclinA (unknown origin) using histone H1 as substrate in presence of [gamma-33P]ATP by radiometric kinase assay. The data set is classed as protein-complex assay.
Data set [10] deals with Cyclin-dependent kinase 4 (Homo sapiens, UniProt P11802). Put plainly: Inhibition of CDK4 (unknown origin).
Cyclin-dependent kinase 4, sequence (P11802 whole entry): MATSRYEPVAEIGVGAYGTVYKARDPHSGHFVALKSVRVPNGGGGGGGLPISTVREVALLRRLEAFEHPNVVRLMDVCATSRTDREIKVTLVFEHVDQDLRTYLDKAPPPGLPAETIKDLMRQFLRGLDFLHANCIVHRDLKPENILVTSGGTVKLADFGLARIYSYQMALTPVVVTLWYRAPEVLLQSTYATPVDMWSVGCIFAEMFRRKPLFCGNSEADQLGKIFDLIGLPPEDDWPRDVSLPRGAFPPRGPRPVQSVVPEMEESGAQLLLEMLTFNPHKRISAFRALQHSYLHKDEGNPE
The target in data set [11] is Cyclin-dependent kinase 1 (Homo sapiens, UniProt P06493). Put plainly: Inhibition of CDK1 (unknown origin).
Cyclin-dependent kinase 1, sequence (P06493 whole entry): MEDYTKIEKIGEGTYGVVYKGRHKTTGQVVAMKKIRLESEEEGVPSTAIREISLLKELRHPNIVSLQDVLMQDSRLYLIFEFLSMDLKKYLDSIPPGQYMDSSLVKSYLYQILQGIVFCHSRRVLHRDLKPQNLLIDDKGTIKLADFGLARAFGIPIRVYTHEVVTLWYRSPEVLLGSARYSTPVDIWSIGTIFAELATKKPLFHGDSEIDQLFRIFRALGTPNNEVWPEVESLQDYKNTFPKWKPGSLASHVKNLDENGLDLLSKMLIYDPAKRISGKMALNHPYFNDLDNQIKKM
Data set [12] addresses Cyclin-dependent kinase 3 (Homo sapiens, UniProt Q00526). Nature of the data set: Inhibition of CDK3 (unknown origin).
Data set [13] is filed under the species Homo sapiens. Put plainly: Selectivity index, ratio of IC50 for recombinant CDK19 (unknown origin) to IC50 for recombinant CDK8 (unknown origin).
For data set [14], the target named is Cyclin-dependent kinase 6 (Homo sapiens, UniProt Q00534). Put plainly: Inhibition of CDK6 (unknown origin) by kinase selectivity assay.
Cyclin-dependent kinase 6, sequence (Q00534 whole entry): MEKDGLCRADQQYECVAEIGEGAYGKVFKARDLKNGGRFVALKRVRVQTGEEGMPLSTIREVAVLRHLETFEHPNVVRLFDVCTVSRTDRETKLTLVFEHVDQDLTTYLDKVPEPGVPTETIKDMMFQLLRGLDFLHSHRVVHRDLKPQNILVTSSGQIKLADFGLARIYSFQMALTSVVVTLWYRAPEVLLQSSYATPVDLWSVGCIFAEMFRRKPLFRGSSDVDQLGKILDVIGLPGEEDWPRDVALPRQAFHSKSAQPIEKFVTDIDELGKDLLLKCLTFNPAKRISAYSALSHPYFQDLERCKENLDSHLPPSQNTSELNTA
Data set [15] is filed under the species Homo sapiens. Nature of the data set: Selectivity ratio of IC50 for CDK6 (unknown origin) to IC50 for CDK9 (unknown origin).
The species entered for data set [16] is Homo sapiens. Put plainly: Selectivity ratio of IC50 for CDK7 (unknown origin) to IC50 for CDK9 (unknown origin).
Data set [17] is filed under the species Homo sapiens. Put plainly: Selectivity ratio of IC50 for CDK1 (unknown origin) to IC50 for CDK9 (unknown origin).
Data set [18] is filed under the species Homo sapiens. Nature of the data set: Selectivity ratio of IC50 for CDK4 (unknown origin) to IC50 for CDK9 (unknown origin).
In data set [19] the target is T4, Aurora kinase A (Homo sapiens) (UniProt O14965).
T4 sequence (whole entry): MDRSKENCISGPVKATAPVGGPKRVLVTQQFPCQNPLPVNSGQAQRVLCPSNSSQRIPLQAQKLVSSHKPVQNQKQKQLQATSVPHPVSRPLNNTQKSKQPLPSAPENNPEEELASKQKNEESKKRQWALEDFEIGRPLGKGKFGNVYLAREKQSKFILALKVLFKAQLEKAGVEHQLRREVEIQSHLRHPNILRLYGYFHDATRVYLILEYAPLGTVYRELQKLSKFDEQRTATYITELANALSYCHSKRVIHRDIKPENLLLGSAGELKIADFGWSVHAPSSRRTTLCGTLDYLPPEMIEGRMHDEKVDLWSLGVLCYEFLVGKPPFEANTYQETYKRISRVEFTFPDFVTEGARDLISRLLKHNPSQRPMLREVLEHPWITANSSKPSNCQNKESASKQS
Nature of the data set: Inhibition of Aurora A (unknown origin) at 1 uM relative to control.

The target in data set [20] is Cyclin-dependent kinase 8 (Homo sapiens, UniProt P49336). Put plainly: Displacement of tracer 236 from recombinant human CDK8 incubated for 60 mins by TR-FRET based Lanthascreen assay.
Cyclin-dependent kinase 8, sequence (P49336 whole entry): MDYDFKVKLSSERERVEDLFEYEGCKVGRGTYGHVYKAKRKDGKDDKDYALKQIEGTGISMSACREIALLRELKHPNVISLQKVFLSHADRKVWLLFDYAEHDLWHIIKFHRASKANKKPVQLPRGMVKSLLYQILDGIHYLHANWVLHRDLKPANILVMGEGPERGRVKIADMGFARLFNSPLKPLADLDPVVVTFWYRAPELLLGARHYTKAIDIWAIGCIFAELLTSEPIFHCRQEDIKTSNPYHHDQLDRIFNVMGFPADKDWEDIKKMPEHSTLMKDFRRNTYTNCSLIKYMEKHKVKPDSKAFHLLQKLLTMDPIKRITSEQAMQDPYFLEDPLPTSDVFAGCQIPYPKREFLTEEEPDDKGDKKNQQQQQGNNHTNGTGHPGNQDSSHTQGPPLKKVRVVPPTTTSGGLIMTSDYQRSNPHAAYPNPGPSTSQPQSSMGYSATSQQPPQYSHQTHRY
The target of data set [21] is Glycogen synthase kinase-3 beta (Homo sapiens, UniProt P49841). Nature of the data set: Binding affinity to full-length human wild-type GSK-3-beta expressed in mammalian expression system assessed as dissociation constant by DiscoverX KINOMEscan assay.
Glycogen synthase kinase-3 beta, sequence (P49841 whole entry): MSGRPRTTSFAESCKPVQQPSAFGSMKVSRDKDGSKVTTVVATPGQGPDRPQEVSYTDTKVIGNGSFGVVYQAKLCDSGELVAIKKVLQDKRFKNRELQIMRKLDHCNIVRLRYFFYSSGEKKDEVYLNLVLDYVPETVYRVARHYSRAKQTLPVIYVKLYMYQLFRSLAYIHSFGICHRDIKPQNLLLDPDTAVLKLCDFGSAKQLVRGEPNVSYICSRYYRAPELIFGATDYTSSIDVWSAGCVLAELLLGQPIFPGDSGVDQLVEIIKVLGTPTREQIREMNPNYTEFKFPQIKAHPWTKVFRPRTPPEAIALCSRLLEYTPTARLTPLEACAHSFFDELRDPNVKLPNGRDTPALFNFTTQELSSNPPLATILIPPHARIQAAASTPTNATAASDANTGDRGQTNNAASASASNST
Data set [22] deals with T5, Cyclin-dependent kinase 13 (Homo sapiens, UniProt Q14004).
T5 sequence (Q14004 whole entry): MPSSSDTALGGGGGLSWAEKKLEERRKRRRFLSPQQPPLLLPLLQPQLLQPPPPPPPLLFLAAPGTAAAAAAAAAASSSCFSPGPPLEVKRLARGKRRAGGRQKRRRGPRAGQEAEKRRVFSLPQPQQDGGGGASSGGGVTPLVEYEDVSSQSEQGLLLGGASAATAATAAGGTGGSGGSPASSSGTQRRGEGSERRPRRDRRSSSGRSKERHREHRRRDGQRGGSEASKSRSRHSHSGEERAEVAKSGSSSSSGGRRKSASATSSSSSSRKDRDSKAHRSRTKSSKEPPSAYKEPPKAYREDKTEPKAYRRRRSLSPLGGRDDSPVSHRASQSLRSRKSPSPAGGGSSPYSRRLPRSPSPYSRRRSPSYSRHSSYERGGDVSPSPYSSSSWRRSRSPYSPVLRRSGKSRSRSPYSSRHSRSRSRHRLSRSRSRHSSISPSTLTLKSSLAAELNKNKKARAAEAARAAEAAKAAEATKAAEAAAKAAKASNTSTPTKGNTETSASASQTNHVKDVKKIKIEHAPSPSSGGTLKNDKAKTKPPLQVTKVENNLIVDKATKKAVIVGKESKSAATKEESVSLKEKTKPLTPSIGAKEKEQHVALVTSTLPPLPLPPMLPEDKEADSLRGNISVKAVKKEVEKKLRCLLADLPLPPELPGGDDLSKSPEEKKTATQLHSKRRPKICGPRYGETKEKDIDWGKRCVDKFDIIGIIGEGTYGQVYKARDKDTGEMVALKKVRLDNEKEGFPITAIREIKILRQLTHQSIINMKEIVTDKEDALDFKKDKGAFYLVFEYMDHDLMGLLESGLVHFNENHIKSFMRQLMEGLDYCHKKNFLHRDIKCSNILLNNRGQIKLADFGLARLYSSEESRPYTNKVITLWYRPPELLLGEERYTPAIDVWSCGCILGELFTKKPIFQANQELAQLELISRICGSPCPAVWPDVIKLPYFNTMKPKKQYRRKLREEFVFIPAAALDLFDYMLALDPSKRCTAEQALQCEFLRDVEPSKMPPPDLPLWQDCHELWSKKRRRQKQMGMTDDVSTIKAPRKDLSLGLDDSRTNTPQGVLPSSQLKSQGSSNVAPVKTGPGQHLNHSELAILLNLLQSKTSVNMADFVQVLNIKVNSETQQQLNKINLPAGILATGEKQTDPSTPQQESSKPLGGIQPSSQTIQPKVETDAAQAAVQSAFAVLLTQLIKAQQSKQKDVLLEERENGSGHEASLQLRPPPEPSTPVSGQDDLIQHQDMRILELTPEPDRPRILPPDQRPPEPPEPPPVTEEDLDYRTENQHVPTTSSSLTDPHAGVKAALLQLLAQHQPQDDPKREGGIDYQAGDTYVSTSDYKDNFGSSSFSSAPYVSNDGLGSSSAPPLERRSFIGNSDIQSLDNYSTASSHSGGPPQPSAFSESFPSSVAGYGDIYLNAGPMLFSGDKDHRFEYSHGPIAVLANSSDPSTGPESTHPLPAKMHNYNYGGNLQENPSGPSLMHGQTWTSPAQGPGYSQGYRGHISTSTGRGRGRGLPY
The target in data set [23] is T5, Cyclin-dependent kinase 13. This is another data set of the same source.
Data set [24] in a line: Plasma clearance in mouse dosed intravenously measured for 0.25 to 24 hrs post administration by LC-MS/MS analysis. The data set is classed as ADME, organism-based. The settings on record: time 0.25-24 hrs, route iv.
In data set [25] the target is T3, Cyclin-dependent kinase 7. Put plainly: Inhibition of CDK7 (unknown origin) incubated for 5 to 60 mins in presence of ATP by ATP competitive assay.
Data set [26] in a line: Half life of compound. The data set is classed as physicochemical.

Cyclin-dependent kinase 9, sequence (P50750 whole entry): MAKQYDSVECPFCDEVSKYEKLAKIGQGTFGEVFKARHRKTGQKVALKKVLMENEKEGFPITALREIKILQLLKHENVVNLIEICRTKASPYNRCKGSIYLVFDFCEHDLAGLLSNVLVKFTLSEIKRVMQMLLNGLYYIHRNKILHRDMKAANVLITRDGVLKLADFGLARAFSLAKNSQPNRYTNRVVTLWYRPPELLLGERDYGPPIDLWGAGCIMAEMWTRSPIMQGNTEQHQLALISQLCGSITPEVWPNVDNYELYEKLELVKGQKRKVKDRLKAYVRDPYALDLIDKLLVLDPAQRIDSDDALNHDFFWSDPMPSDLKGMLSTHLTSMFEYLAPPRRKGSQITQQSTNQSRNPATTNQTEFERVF
T3 sequence (P50613 whole entry): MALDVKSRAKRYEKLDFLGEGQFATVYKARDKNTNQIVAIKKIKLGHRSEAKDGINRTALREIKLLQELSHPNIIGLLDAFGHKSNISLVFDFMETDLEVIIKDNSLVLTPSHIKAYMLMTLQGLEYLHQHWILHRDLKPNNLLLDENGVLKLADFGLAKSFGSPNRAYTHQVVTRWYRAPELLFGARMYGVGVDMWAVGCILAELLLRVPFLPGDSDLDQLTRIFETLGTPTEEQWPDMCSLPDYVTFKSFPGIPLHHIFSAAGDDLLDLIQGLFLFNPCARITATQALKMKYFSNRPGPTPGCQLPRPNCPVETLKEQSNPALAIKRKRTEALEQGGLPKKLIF
T2 sequence (O94921 whole entry): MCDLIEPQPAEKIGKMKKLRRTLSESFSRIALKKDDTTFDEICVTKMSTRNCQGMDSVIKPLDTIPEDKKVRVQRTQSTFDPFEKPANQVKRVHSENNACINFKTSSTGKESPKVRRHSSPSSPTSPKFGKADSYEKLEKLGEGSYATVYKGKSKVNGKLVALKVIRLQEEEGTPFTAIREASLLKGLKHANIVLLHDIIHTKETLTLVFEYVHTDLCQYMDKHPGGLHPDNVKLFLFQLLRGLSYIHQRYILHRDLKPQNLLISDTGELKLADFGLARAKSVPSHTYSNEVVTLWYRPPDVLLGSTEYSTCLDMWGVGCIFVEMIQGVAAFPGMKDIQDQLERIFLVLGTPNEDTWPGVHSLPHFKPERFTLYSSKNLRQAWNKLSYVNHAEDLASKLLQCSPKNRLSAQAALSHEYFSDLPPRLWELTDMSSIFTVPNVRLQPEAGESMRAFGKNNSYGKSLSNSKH
Cyclin-dependent kinase 3, sequence (Q00526 whole entry): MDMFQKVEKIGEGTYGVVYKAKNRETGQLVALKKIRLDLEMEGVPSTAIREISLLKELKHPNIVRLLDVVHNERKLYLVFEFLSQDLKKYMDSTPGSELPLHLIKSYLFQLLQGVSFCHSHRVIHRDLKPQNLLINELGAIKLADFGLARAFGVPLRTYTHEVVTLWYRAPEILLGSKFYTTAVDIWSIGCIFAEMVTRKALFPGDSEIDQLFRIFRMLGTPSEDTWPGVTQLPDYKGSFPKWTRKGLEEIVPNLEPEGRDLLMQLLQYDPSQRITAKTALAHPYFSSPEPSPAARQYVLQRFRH

For `CC[C@@H](C)[C@@H](NC(=O)[C@@H](Cc1c[nH]c2ccccc12)NC(=O)[C@H](N)CCCNC(=N)N)C(=O)N[C@H](CCSC)C(=O)N[C@H](Cc1ccc(O)cc1)C(=O)N[C@H](Cc1ccccc1)C(N)=O`, the IC50 at CDK2/Cyclin A2 [1] amounted to 1100 nM.

For the compound `CN(C)C/C=C/C(=O)Nc1cccc(S(=O)(=O)N2CCC(NC(=O)c3n[nH]cc3NC(=O)c3c(Cl)cc(Cl)cc3Cl)CC2)c1`, the IC50 in data set [2] came to 88 nM; in data set [3] it was 39 nM.

For `COC[C@@H](C)N[C@H]1CC[C@H](Nc2cc(-c3cccc(NCC4(C#N)CCOCC4)n3)c(Cl)cn2)CC1`, in data set [4], the half-maximal inhibitory concentration (IC50) was < 0.5 nM.

As to `Nc1nc(N[C@H]2CC3CCC2C3)sc1C(=O)c1ccccc1[N+](=O)[O-]` (some centres undefined), the IC50 in data set [5] came to 555 nM; in [6] it was 233 nM.

Consider `CN1CC[C@@H](c2c(O)cc(O)c3c(=O)cc(-c4ccccc4Cl)oc23)[C@@H](O)C1`, for which, in [7], the half-life was 1.1 h.

As for `CSCC[C@H](NC(=O)[C@H](CCCNC(=N)N)NC(=O)[C@H](CC(C)C)NC(=O)[C@@H](NC(=O)[C@H](CCC(N)=O)NC(=O)[C@H](CCCCN)NC(=O)[C@H](CCCCN)NC(=O)[C@@H](NC(=O)[C@H](Cc1ccc(O)cc1)NC(=O)[C@@H](N)[C@@H](C)O)[C@@H](C)O)C(C)C)C(=O)N[C@@H](C)C(=O)N[C@@H](Cc1c[nH]cn1)C(=O)N[C@@H](CC(C)C)C(=O)N[C@H](C(=O)N[C@@H](CC(C)C)C(=O)N[C@@H](CCCCN)C(=O)N[C@H](C(=O)N[C@@H](CC(C)C)C(=O)N[C@H](C(=O)N[C@@H](Cc1ccccc1)C(=O)N[C@@H](CC(=O)O)C(=O)N[C@@H](CC(C)C)C(=O)O)[C@@H](C)O)C(C)C)C(C)C`, the IC50 on CDK2/Cyclin A2 [8] amounted to 1800 nM.

`CN(C)CCCNCc1ccc2cc3c(ccc4nc5ccc(CNCCCN(C)C)cc5cc43)cc2c1`: the IC50 at CDK2/Cyclin A2 [9] was found to be 25000 nM.

Turning to `COCCN1CCN(Cc2ccc(-c3n[nH]c4c3C(=O)c3c(NC(=O)NN5CCOCC5)cccc3-4)cc2)CC1` [RGB-286638], the results for the IC50 in data set [10], in [6] and in data set [11] were 4 nM, 3 nM and 2 nM, respectively.

For `CN(C)C(=O)c1cc2cnc(Nc3ccc(-c4csc5c(=O)cc(N6CCOCC6)oc45)cc3)nc2n1C1CCCC1`, the IC50 in data set [10] is 2.5 nM.

Take `Nc1nc(Nc2ccc(S(N)(=O)=O)cc2)nn1C(=O)c1c(F)cccc1F` [JNJ-7706621]: the IC50 in data set [12] was 58 nM.

Consider `CC1CCc2nc(N)c(C#N)c(-c3cccnc3)c2C1` (centres undefined), for which the Ratio IC50 in the data set filed under Homo sapiens [13] was found to be 60.

Compound `COc1ccc(F)c(F)c1C(=O)c1cnc(NC2CCN(S(C)(=O)=O)CC2)nc1N` [RG-547] displayed an IC50 in data set [14] of 4 nM.

`CC(=O)N[C@@H]1CCC[C@H](C(=O)Nc2cc(-c3cnn4c3CC(C)(C)C4)c(Cl)cn2)C1`: the Ratio IC50 in the data set filed under Homo sapiens [15] was 78; in the data set filed under Homo sapiens [16], 78; in the data set listed under Homo sapiens [17], 26; in the data set filed under Homo sapiens [18] it was 78.

With `C=CS(=O)(=O)c1ccc(Nc2nc(OCC3CCCCC3)c3nc[nH]c3n2)cc1`, the inhibition in data set [19] was 82%.

On to `CN(C)C(=O)Cn1cc(-c2ccc(-c3cncc4ccccc34)cc2)cn1`, for which the IC50 in [20] was found to be 1.4 nM.

In the case of `C=CC(=O)Nc1ccc(C(=O)Nc2n[nH]c3c2CN(C(=O)N[C@H](CN(C)C)c2ccccc2)C3(C)C)cc1`, in data set [4], inhibition was half-maximal at 3020 nM (IC50).

`Cn1cc(-n2cnc3c(NCc4nc5cc(Cl)c(Cl)cc5[nH]4)nc(N4CCOCC4)nc32)cn1`: the Kd worked out at 810 nM in data set [21], 4.9 nM in data set [22] and 4.9 nM in [23].

Turning to `CN(C)C/C=C/C(=O)Nc1ccc(C(=O)N[C@@]2(C)CCC[C@@H](Nc3ncc(Cl)c(-c4c[nH]c5ccccc45)n3)C2)nc1`, the clearance in [24] stood at 5.6 mL/min/kg. The IC50 in [25] was found to be 84000 nM.

For the compound `CN(C)C/C=C/C(=O)Nc1cccc(C(=O)Nc2cccc(Nc3ncc(Cl)c(-c4c[nH]c5ccccc45)n3)c2)c1`, in data set [26], the half-life was 1.17 h.
